Test results as given in patent US20040013649A1, “Cancer vaccines and methods of using the same” (Inex Pharmaceuticals Corporation, priority 2002, published 2004).
[5mC] = 5-methylcytosine

Tests used:
[1] = system: dendritic cells, NK cells, and CD8+ T-cells; assay: cytokine release assay after subcutaneous immunization; assay type: in vivo, C57BI/6 mice; settings: lipid encapsulated; 100 μg ODN + 20 μg antigen s.c. q7d×3; FIGS. 10 and 11
Protocol: To monitor immunological response to subcutaneous immunization, antigen specific cellular immune responses were monitored using MHC Class.l-tetramer analyses, cytotoxicity assays and cytokine release assays while humoral immune responses were monitored by measuring plasma antibody levels. Cellular and humoral responses were assessed in C57BI/6 and Balb/C mice respectively (5 animals per group). For analysis of the cellular response, mice were immunized subcutaneously with 3 injections on a q7d×3 dosing regimen on Days 0, 7 and 14 at a dose of 100 μg oligonucleotide in combination with 20 μg of antigen . The spleen, liver, lymph node and blood tissues were collected on Day 21. Solid tissues were mechanically dissociated and cells were processed to collect mononuclear cells. […]
The aim of the cytokine release assay is to detect antigen-specific immune effector cells that are activated to produce and secrete cytokines, specifically IFN-γ, in response to stimulation with a specific antigen. Cells were isolated from the spleen, liver, blood and lymph nodes of immunized animals and analyzed using the Cytokine Secretion Assay (Miltenyi Biotec). […] Cells were then labeled with fluorescently labeled antibodies against IFN-γ and various phenotype markers and analyzed by flow cytometry to allow detection of specific cell types that were activated to secrete IFN-γ. […]

[2] = system: E.G7-OVA; assay: prophylactic efficacy of OVA / OVA257-264 vaccination, E.G7-OVA model; assay type: in vivo, C57/BL6 mice; settings: LNA (encapsulated) forms; FIG. 35
Protocol: Vaccinations. B6 mice were vaccinated subcutaneously (SC) with […] per injection. Dosing schedules were either q7dx2 or q4dx4 and are indicated in the individual figure legends. CFA mixtures were very viscous and had to be given with a larger gauge syringe. For humoral studies, a prime (day 0) and boost (day 14) strategy was used and blood samples were collected at various times by tail nicking.
Efficacy studies. E.G7-OVA or EL-4 thymoma cell lines were used throughout the study. These cells were cultured in vitro according to established methods. For tumor studies, 2.5×106 E.G7-OVA cells were injected subcutaneously in […] of PBS containing 1% FCS. Tumor measurements were made by repeated perpendicular measurements of tumor dimensions and using the formula: […]
Full-length OVA and the immunodominant cytotoxic T lymphocyte (CTL) peptide epitope (OVA257-264) were used to evaluate cell mediated immune responses and the prophylactic and therapeutic efficacy of OVA vaccination against the E.G7-OVA transfected cell line, using LNA both as an adjuvant and as the basis for a cancer vaccine formulation. LNA formulations for this experiment were prepared using DSPC:Chol:DODAP:PEGCer14 at a ration of 25:45:20:10
The anti-tumor activity of OVA and OVA257-264 were examined against the murine thymoma cell line, E.G7-OVA, implanted subcutaneously (SC) in C57/BL6 mice. […] Given the activity observed with the protein or peptide alone, this dose and schedule represents a useful model to evaluate adjuvants designed to boost the immune response against OVA and/or OVA257-264.
To examine LNA formulations as adjuvants, the impact of three variables were evaluated on vaccination and efficacy in the prophylactic E.G7-OVA model: (1) the activity of free vs. encapsulated ODN 1, (2) phosphodiester (PO) vs phosphorothioate (PS) ODN, and (3) full-length OVA protein vs single-epitope peptide OVA257-264 (FIGS. 30A and B). In this set of studies, free and encapsulated ODN 1 was simply mixed with antigen and administered SC near the nape of the neck. ODN and antigen doses in these studies were […], respectively.

With “ODN1m: 5′-TAAZGTTGAGGGGCAT-3, SEQ ID NO: 4, Z = methylated cytosine (DNA TAACGTTGAGGGGCAT; DNA, [5mC] at 4, backbone not given here; tested with both phosphodiester and phosphorothioate backbones)” the “immune stimulation (cytokine secretion of dendritic cells, NK cells, CD8+ T-cells), methylated normalized to unmethylated ODN” value [1] was “consistently at least equivalent to, and often better than” and the “efficacy of ODN sequences” value [2] was “strongest responses”.
